Test results published in patent publication US20260356819A1, “OXOISOINDOLINYL-SUBSTITUTED […] DERIVATIVE AND USE THEREOF” (GLUETACS THERAPEUTICS (SHANGHAI) CO., LTD., priority 2023, published 2026).

Legend:
Type in all cases: cell-based
Conditions in all cases: compounds at 50 nM and 500 nM
[1] = target: T1, IKZF2 (Homo sapiens, UniProt Q96SW2+Q9UKS7); assay: Western blot degradation of IKZF2 in hPBMCs (24 h)
T1 construct: The supernatant was aspirated as the extracted total cell protein; endogenous in cells; host or cells: human peripheral blood mononuclear cells (hPBMCs)
T1 sequence (Q9UKS7 whole entry): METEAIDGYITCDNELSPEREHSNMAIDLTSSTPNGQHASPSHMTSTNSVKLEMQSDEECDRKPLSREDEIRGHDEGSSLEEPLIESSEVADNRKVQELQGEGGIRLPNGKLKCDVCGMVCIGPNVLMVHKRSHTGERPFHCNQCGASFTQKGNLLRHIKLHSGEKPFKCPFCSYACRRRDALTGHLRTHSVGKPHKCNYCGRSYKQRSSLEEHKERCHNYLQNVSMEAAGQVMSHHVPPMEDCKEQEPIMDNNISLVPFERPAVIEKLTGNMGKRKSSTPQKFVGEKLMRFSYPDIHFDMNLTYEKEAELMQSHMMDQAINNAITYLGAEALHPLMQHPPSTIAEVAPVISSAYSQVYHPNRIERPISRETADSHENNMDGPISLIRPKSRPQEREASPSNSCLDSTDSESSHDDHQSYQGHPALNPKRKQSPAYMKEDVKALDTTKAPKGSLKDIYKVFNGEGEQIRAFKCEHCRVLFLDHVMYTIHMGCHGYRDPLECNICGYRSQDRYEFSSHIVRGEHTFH
T1 sequence (Q96SW2 whole entry): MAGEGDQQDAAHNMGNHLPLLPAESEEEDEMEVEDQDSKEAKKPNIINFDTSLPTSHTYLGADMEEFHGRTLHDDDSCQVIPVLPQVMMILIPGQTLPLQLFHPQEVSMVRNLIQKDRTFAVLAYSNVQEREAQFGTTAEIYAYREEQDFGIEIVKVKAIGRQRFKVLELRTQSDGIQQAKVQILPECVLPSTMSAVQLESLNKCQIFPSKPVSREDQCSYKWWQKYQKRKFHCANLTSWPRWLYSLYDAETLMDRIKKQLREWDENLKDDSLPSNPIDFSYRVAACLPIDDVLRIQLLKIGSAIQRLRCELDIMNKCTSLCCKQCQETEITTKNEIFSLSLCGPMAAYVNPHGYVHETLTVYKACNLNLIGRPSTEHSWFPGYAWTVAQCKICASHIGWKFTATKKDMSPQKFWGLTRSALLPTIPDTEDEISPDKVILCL
T1 sequence (Q16531 whole entry partner): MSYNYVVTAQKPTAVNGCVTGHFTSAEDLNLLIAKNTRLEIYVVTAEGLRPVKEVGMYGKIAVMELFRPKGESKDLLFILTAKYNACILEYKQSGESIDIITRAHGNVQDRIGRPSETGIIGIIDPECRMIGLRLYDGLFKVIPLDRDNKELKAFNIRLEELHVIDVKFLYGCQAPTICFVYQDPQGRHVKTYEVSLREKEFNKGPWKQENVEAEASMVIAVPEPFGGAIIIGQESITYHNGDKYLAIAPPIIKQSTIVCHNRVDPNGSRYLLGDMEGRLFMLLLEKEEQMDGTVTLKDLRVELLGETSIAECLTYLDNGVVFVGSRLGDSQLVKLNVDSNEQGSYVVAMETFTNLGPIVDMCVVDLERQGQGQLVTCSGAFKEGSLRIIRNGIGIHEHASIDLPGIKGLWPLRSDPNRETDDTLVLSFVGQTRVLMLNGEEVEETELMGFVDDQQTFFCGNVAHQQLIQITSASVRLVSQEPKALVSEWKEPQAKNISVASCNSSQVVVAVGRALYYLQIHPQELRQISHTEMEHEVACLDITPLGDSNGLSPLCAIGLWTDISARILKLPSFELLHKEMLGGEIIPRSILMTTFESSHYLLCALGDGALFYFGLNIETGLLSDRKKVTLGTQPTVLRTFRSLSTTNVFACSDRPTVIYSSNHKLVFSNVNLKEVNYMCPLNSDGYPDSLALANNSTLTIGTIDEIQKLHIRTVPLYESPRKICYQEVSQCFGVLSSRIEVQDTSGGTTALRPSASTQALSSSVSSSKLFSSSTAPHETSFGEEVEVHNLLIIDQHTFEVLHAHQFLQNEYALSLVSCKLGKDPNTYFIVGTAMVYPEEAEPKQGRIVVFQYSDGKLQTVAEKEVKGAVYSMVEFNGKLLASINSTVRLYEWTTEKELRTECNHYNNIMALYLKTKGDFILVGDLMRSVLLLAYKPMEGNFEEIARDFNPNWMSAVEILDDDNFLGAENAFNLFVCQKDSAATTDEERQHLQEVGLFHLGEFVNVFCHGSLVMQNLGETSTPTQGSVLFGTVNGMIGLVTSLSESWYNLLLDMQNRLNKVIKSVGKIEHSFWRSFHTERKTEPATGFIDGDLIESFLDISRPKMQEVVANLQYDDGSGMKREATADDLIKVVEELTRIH
Summary of the method: (§1)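 Western blot densitometry after 24 h treatment of human PBMCs (1×10^6 cells/mL) with 50 nM or 500 nM compound. Remaining target (%) = band intensity over internal-control band, normalized to DMSO; degradation = 1 − remaining; DC50 is the concentration giving half the DMSO band signal.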

[2] = target: T2, WEE1 (Homo sapiens, UniProt P30291+Q96SW2); assay: Western blot degradation of WEE1 in hPBMCs (24 h)
T2 construct: The supernatant was aspirated as the extracted total cell protein; endogenous in cells; host or cells: human peripheral blood mononuclear cells (hPBMCs)
Summary of the method: as §1

[3] = target: T3, GSPT1 (Homo sapiens, UniProt P15170+Q96SW2); assay: Western blot degradation of GSPT1 in hPBMCs (24 h)
T3 construct: The supernatant was aspirated as the extracted total cell protein; endogenous in cells; host or cells: human peripheral blood mononuclear cells (hPBMCs)
T3 sequence (P15170 whole entry): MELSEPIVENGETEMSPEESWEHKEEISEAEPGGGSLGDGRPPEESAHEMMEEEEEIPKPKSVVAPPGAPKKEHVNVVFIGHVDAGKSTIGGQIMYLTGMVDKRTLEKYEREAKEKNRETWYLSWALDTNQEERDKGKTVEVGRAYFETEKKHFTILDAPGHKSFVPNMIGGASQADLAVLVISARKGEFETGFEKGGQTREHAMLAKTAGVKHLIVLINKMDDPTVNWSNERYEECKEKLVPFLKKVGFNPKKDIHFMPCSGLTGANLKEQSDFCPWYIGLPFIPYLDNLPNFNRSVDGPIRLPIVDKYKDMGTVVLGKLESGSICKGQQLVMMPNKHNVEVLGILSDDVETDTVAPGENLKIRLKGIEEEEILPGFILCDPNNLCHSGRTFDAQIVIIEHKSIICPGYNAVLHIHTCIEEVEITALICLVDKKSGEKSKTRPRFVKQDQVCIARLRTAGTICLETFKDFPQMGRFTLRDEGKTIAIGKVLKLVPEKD
T3 sequence (Q96SW2 whole entry): as the sequence (Q96SW2 whole entry) above
T3 sequence (Q16531 whole entry partner): as the sequence (Q16531 whole entry partner) above
Summary of the method: as §1

[4] = target: T4, CK1α (Homo sapiens, UniProt P48729+Q96SW2); assay: Western blot degradation of CK1α in hPBMCs (24 h)
T4 construct: The supernatant was aspirated as the extracted total cell protein; endogenous in cells; host or cells: human peripheral blood mononuclear cells (hPBMCs)
T4 sequence (P48729 whole entry): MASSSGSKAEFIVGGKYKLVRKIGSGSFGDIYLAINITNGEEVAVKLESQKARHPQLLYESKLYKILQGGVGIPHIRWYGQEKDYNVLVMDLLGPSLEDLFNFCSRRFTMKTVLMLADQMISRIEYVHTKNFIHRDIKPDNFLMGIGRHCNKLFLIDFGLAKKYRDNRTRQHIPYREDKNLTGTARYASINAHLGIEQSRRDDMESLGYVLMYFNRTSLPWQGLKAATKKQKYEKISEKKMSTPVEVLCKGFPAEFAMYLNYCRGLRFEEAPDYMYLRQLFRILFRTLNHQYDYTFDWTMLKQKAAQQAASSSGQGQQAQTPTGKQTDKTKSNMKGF
T4 sequence (Q96SW2 whole entry): as the sequence (Q96SW2 whole entry) above
T4 sequence (Q16531 whole entry partner): as the sequence (Q16531 whole entry partner) above
Summary of the method: as §1

[5] = target: T5, IKZF1 (Homo sapiens, UniProt Q13422+Q96SW2); assay: Western blot degradation of IKZF1 in hPBMCs (24 h)
T5 construct: The supernatant was aspirated as the extracted total cell protein; endogenous in cells; host or cells: human peripheral blood mononuclear cells (hPBMCs)
T5 sequence (Q13422 whole entry): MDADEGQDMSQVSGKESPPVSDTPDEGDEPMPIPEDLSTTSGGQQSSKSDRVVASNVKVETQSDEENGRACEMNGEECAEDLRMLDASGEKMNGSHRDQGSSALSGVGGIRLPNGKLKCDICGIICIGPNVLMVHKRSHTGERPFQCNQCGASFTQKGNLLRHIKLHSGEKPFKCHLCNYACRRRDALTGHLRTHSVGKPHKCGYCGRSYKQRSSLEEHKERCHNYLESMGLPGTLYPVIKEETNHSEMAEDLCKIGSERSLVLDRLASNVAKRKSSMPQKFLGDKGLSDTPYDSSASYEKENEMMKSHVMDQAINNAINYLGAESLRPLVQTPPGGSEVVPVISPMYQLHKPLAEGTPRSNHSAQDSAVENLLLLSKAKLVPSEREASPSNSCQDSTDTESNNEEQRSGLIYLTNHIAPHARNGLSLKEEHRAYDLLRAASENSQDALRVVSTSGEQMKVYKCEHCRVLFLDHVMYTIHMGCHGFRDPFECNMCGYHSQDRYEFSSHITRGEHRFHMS
T5 sequence (Q96SW2 whole entry): as the sequence (Q96SW2 whole entry) above
T5 sequence (Q16531 whole entry partner): as the sequence (Q16531 whole entry partner) above
Summary of the method: as §1

[6] = target: T6, IKZF3 (Homo sapiens, UniProt Q96SW2+Q9UKT9); assay: Western blot degradation of IKZF3 in hPBMCs (24 h)
T6 construct: The supernatant was aspirated as the extracted total cell protein; endogenous in cells; host or cells: human peripheral blood mononuclear cells (hPBMCs)
T6 sequence (Q9UKT9 whole entry): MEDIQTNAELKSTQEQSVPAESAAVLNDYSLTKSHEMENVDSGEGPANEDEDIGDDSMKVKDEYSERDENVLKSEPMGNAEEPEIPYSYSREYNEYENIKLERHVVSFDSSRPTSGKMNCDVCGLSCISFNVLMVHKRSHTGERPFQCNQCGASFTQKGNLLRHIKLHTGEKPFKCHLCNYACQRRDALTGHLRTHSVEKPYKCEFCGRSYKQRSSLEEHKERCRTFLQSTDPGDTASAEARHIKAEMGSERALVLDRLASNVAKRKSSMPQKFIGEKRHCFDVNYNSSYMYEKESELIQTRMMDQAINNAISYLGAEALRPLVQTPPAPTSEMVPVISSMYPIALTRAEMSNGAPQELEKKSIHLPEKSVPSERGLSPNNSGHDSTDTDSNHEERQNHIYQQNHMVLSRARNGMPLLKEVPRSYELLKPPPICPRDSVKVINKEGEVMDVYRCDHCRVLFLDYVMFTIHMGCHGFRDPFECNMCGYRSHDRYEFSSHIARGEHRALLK
T6 sequence (Q96SW2 whole entry): as the sequence (Q96SW2 whole entry) above
T6 sequence (Q16531 whole entry partner): as the sequence (Q16531 whole entry partner) above
Summary of the method: as §1

O=C1CCN(N2C(=O)c3ccc(CN4CCC(N5CCOc6cc(F)ccc65)CC4)cc3C2=O)C(=O)N1 [GT-07682, 2-(2,4-dioxotetrahydropyrimidin-1(2H)-yl)-5-((4-(7-fluoro-2,3-dihydro-4H-benzo[b][1,4]oxazin-4-yl)piperidin-1-yl)methyl)isoindoline-1,3-dione]
IKZF2 substrate protein remaining % [1]: B (80%< substrate protein remaining % ≤100%) | WEE1 substrate protein remaining % [2]: B (80%< substrate protein remaining % ≤100%) | GSPT1 substrate protein remaining % [3]: A (0% ≤ substrate protein remaining % ≤80%) | CK1α substrate protein remaining % [4]: B (80%< substrate protein remaining % ≤100%) | IKZF1 substrate protein remaining % [5]: B (80%< substrate protein remaining % ≤100%) | IKZF3 substrate protein remaining % [6]: B (80%< substrate protein remaining % ≤100%)

O=C1CCN(N2C(=O)c3ccc(CN4CCN(C(c5ccccc5)c5ccccc5)CC4)cc3C2=O)C(=O)N1 [GT-05267, 5-((4-benzhydrylpiperazin-1-yl)methyl)-2-(2,4-dioxotetrahydropyrimidin-1(2H)-yl)isoindoline-1,3-dione]
IKZF2 substrate protein remaining % [1]: B (80%< substrate protein remaining % ≤100%) | WEE1 substrate protein remaining % [2]: B (80%< substrate protein remaining % ≤100%) | GSPT1 substrate protein remaining % [3]: A (0% ≤ substrate protein remaining % ≤80%) | CK1α substrate protein remaining % [4]: A (0% ≤ substrate protein remaining % ≤80%) | IKZF1 substrate protein remaining % [5]: B (80%< substrate protein remaining % ≤100%) | IKZF3 substrate protein remaining % [6]: A (0% ≤ substrate protein remaining % ≤80%)

Cc1nc(C2CCN(Cc3ccc4c(c3)CN(N3CCC(=O)NC3=O)C4=O)CC2)c2ccsc2n1 [GT-08088, 1-(5-((4-(2-methylthieno[2,3-d]pyrimidin-4-yl)piperidin-1-yl)methyl)-1-oxoisoindolin-2-yl)dihydropyrimidine-2,4(1H,3H)-dione]
IKZF2 substrate protein remaining % [1]: B (80%< substrate protein remaining % ≤100%) | WEE1 substrate protein remaining % [2]: A (0% ≤ substrate protein remaining % ≤80%) | GSPT1 substrate protein remaining % [3]: A (0% ≤ substrate protein remaining % ≤80%) | CK1α substrate protein remaining % [4]: A (0% ≤ substrate protein remaining % ≤80%) | IKZF1 substrate protein remaining % [5]: B (80%< substrate protein remaining % ≤100%) | IKZF3 substrate protein remaining % [6]: B (80%< substrate protein remaining % ≤100%)

O=C1CCN(N2C(=O)c3ccc(CN4CCN(c5ncnc(Cl)c5Cl)CC4)cc3C2=O)C(=O)N1 [GT-07034, 5-((4-(5,6-dichloropyrimidin-4-yl)piperazin-1-yl)methyl)-2-(2,4-dioxotetrahydropyrimidin-1(2H)-yl)isoindoline-1,3-dione]
IKZF2 substrate protein remaining % [1]: A (0% ≤ substrate protein remaining % ≤80%) | WEE1 substrate protein remaining % [2]: A (0% ≤ substrate protein remaining % ≤80%) | GSPT1 substrate protein remaining % [3]: A (0% ≤ substrate protein remaining % ≤80%) | CK1α substrate protein remaining % [4]: A (0% ≤ substrate protein remaining % ≤80%) | IKZF1 substrate protein remaining % [5]: A (0% ≤ substrate protein remaining % ≤80%) | IKZF3 substrate protein remaining % [6]: A (0% ≤ substrate protein remaining % ≤80%)

O=C1CCN(N2Cc3cc(CN4CCN(c5ccncc5F)CC4)ccc3C2=O)C(=O)N1 [GT-05697, 1-(5-((4-(3-fluoropyridin-4-yl)piperazin-1-yl)methyl)-1-oxoisoindolin-2-yl)dihydropyrimidine-2,4(1H,3H)-dione]
IKZF2 substrate protein remaining % [1]: B (80%< substrate protein remaining % ≤100%) | WEE1 substrate protein remaining % [2]: A (0% ≤ substrate protein remaining % ≤80%) | GSPT1 substrate protein remaining % [3]: A (0% ≤ substrate protein remaining % ≤80%) | CK1α substrate protein remaining % [4]: B (80%< substrate protein remaining % ≤100%) | IKZF1 substrate protein remaining % [5]: B (80%< substrate protein remaining % ≤100%) | IKZF3 substrate protein remaining % [6]: B (80%< substrate protein remaining % ≤100%)

O=C1CCN(N2C(=O)c3ccc(CN4CCN(c5ccc(F)cn5)CC4)cc3C2=O)C(=O)N1 [GT-06965, 2-(2,4-dioxotetrahydropyrimidin-1(2H)-yl)-5-((4-(5-fluoropyridin-2-yl)piperazin-1-yl)methyl)isoindoline-1,3-dione]
IKZF2 substrate protein remaining % [1]: A (0% ≤ substrate protein remaining % ≤80%) | WEE1 substrate protein remaining % [2]: B (80%< substrate protein remaining % ≤100%) | GSPT1 substrate protein remaining % [3]: B (80%< substrate protein remaining % ≤100%) | CK1α substrate protein remaining % [4]: B (80%< substrate protein remaining % ≤100%) | IKZF1 substrate protein remaining % [5]: B (80%< substrate protein remaining % ≤100%) | IKZF3 substrate protein remaining % [6]: B (80%< substrate protein remaining % ≤100%)

O=C1CCN(N2C(=O)c3ccc(CN4CCN(c5ccncc5Br)CC4)cc3C2=O)C(=O)N1 [GT-07163, 5-((4-(3-bromopyridin-4-yl)piperazin-1-yl)methyl)-2-(2,4-dioxotetrahydropyrimidin-1(2H)-yl)isoindoline-1,3-dione]
IKZF2 substrate protein remaining % [1]: A (0% ≤ substrate protein remaining % ≤80%) | WEE1 substrate protein remaining % [2]: B (80%< substrate protein remaining % ≤100%) | GSPT1 substrate protein remaining % [3]: A (0% ≤ substrate protein remaining % ≤80%) | CK1α substrate protein remaining % [4]: B (80%< substrate protein remaining % ≤100%) | IKZF1 substrate protein remaining % [5]: B (80%< substrate protein remaining % ≤100%) | IKZF3 substrate protein remaining % [6]: B (80%< substrate protein remaining % ≤100%)

O=C1CCN(N2C(=O)c3ccc(CN4CCC(Nc5ccccc5-c5ccc(Cl)cc5)CC4)cc3C2=O)C(=O)N1 [GT-05179, 5-((4-((4′-chloro-[1,1′-biphenyl]-2-yl)amino)piperidin-1-yl)methyl)-2-(2,4-dioxotetrahydropyrimidin-1(2H)-yl)isoindoline-1,3-dione]
IKZF2 substrate protein remaining % [1]: B (80%< substrate protein remaining % ≤100%) | WEE1 substrate protein remaining % [2]: A (0% ≤ substrate protein remaining % ≤80%) | GSPT1 substrate protein remaining % [3]: B (80%< substrate protein remaining % ≤100%) | CK1α substrate protein remaining % [4]: B (80%< substrate protein remaining % ≤100%) | IKZF1 substrate protein remaining % [5]: B (80%< substrate protein remaining % ≤100%) | IKZF3 substrate protein remaining % [6]: B (80%< substrate protein remaining % ≤100%)

O=C1CCN(N2C(=O)c3ccc(CN4CCN(c5ccccc5Cl)CC4)cc3C2=O)C(=O)N1 [GT-06726, 5-((4-(2-chlorophenyl)piperazin-1-yl)methyl)-2-(2,4-dioxotetrahydropyrimidin-1(2H)-yl)isoindoline-1,3-dione]
IKZF2 substrate protein remaining % [1]: A (0% ≤ substrate protein remaining % ≤80%) | WEE1 substrate protein remaining % [2]: A (0% ≤ substrate protein remaining % ≤80%) | GSPT1 substrate protein remaining % [3]: B (80%< substrate protein remaining % ≤100%) | CK1α substrate protein remaining % [4]: A (0% ≤ substrate protein remaining % ≤80%) | IKZF1 substrate protein remaining % [5]: B (80%< substrate protein remaining % ≤100%) | IKZF3 substrate protein remaining % [6]: A (0% ≤ substrate protein remaining % ≤80%)

O=C1CCN(N2Cc3cc(CN4CCN(c5c(Cl)cncc5Br)CC4)ccc3C2=O)C(=O)N1 [GT-07170, 1-(5-((4-(3-bromo-5-chloropyridin-4-yl)piperazin-1-yl)methyl)-1-oxoisoindolin-2-yl)dihydropyrimidine-2,4(1H,3H)-dione]
IKZF2 substrate protein remaining % [1]: B (80%< substrate protein remaining % ≤100%) | WEE1 substrate protein remaining % [2]: A (0% ≤ substrate protein remaining % ≤80%) | GSPT1 substrate protein remaining % [3]: B (80%< substrate protein remaining % ≤100%) | CK1α substrate protein remaining % [4]: B (80%< substrate protein remaining % ≤100%) | IKZF1 substrate protein remaining % [5]: A (0% ≤ substrate protein remaining % ≤80%) | IKZF3 substrate protein remaining % [6]: B (80%< substrate protein remaining % ≤100%)

O=C1CCN(N2C(=O)c3ccc(CN4CCN(Cc5ccccc5-c5ccc(Cl)cc5)CC4)cc3C2=O)C(=O)N1 [GT-06432, 5-((4-((4′-chloro-[1,1′-biphenyl]-2-yl)methyl)piperazin-1-yl)methyl)-2-(2,4-dioxotetrahydropyrimidin-1(2H)-yl)isoindoline-1,3-dione]
IKZF2 substrate protein remaining % [1]: B (80%< substrate protein remaining % ≤100%) | WEE1 substrate protein remaining % [2]: A (0% ≤ substrate protein remaining % ≤80%) | GSPT1 substrate protein remaining % [3]: A (0% ≤ substrate protein remaining % ≤80%) | CK1α substrate protein remaining % [4]: B (80%< substrate protein remaining % ≤100%) | IKZF1 substrate protein remaining % [5]: A (0% ≤ substrate protein remaining % ≤80%) | IKZF3 substrate protein remaining % [6]: B (80%< substrate protein remaining % ≤100%)
